Entries after “also recorded” stand apart in the source; their conditions may differ. Starred links: 1 amine or outer side, 2 acyl side, 3 side chain; linkers in the order of their positions; H or OH if unused. Positions of bridges follow the written chain, without caps; N, C: chain ends. Non-standard residues stand in square brackets, D forms with d. Residues, ends and D or L forms follow the SMILES beside them. X1 = C[C@@](CC=[*:3])(N[*:1])C(=O)[*:2]
Experiments:
[1] = target: recombinant SARS-CoV-2 spike B.1.617.2 (delta variant); format: binding
[2] = test system: omicron (B.1.1.529) variant; format: binding, SARS-CoV-2
[3] = test system: SARS-CoV-2 alpha variant (B.1.1.7); format: cell-based

| Molecule | Kd ([1]; read-out: KD (dissociation constant)) [µM] | binding to omicron variant [2] | inhibition of SARS-CoV-2 virus replication [3] | decrease of viral replication compared to PBS control ([3]; 48 h) [%] | dissociation constant of ACE2 with delta variant compared with wild-type spike [1] |
| --- | --- | --- | --- | --- | --- |
| CSCC[C@@H]1NC(=O)[C@H](CC(N)=O)NC(=O)[C@@H]2CC(=O)NCCCC[C@H](NC(=O)[C@H](Cc3c[nH]c4ccccc34)NC(=O)[C@@H](NC(=O)[C@H](CCCCN)NC(=O)[C@H](Cc3ccc(O)cc3)NC(=O)[C@H](CC(C)C)NC(=O)[C@H](Cc3c[nH]c4ccccc34)NC(=O)[C@H](CCC(=O)O)NC(=O)[C@@H](NC(=O)CNC(C)=O)[C@@H](C)O)C(C)C)C(=O)N[C@@H](C)C(=O)N[C@@H](Cc3ccccc3)C(=O)N[C@@](C)(C/C=C/C[C@@](C)(C(=O)O)NC1=O)C(=O)N2 [pep39] (Ac-GTEWLYKVWKAF[X1]DNM[X1]-OH; lactam 10-14; staple (E) 13-17) | 4.1 ± 1.4 | not as promising as those observed with the original spike protein and the delta variant | strongly inhibits SARS-CoV-2 virus replication in Vero E6 cells; also recorded: SARS-CoV-2 viral replication was significantly inhibited | 82.3 | – |
| ACE2 | – | – | – | – | more favorable for binding than the wild-type spike protein |

From article PMC10507807, “De novo design of a stapled peptide targeting SARS-CoV-2 spike protein receptor-binding domain” (RSC Medicinal Chemistry, 2023)
